Results: ChEMBL document CHEMBL1201862, “PubChem BioAssay data set” (2004)
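Exposure lasted 48 hours, with cells grown in 96-well plates and compounds tested at five concentrations. At the GI50, growth is halved.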 Activity calls are given as the source filed them. Rule as the data show it: active = GI50 up to about 1.1 µM and inactive = higher.

Tests used:
Test in all cases: inhibition of tumour cell growth, NCI panel, 48 h
RXF 393 = tested on: RXF 393
Malme-3M = tested on: Malme-3M
HOP-92 = tested on: HOP-92
UACC-257 = tested on: UACC-257
HT-29 = tested on: HT-29
U-251 = tested on: U-251
SF-268 = tested on: SF-268
NCI-H460 = tested on: NCI-H460
IGROV-1 = tested on: IGROV-1
SN12C = tested on: SN12C
KM12 = tested on: KM12
SK-MEL-5 = tested on: SK-MEL-5
MDA-MB-231 = tested on: MDA-MB-231
OVCAR-8 = tested on: OVCAR-8
SF-295 = tested on: SF-295
T47D = tested on: T47D
SF-539 = tested on: SF-539
DU-145 = tested on: DU-145
SK-OV-3 = tested on: SK-OV-3
NCI-H522 = tested on: NCI-H522

| SMILES | GI50 (RXF 393) | GI50 (Malme-3M) | GI50 (HOP-92) | GI50 (UACC-257) | GI50 (HT-29) | GI50 (U-251) | GI50 (SF-268) | GI50 (NCI-H460) | GI50 (IGROV-1) | GI50 (SN12C) | GI50 (KM12) | GI50 (SK-MEL-5) | GI50 (MDA-MB-231) | GI50 (OVCAR-8) | GI50 (SF-295) | GI50 (T47D) | GI50 (SF-539) | GI50 (DU-145) | GI50 (SK-OV-3) | GI50 (NCI-H522) |
| --- | --- | --- | --- | --- | --- | --- | --- | --- | --- | --- | --- | --- | --- | --- | --- | --- | --- | --- | --- | --- |
| Nc1ncnc2c1ncn2C1OC(CO)C(O)C1NS(=O)(=O)c1ccccc1 (stereo not given) | > 100 µM (inactive) | > 100 µM (inactive) | > 100 µM (inactive) | > 100 µM (inactive) | > 100 µM (inactive) | > 100 µM (inactive) | > 100 µM (inactive) | > 100 µM (inactive) | > 100 µM (inactive) | > 100 µM (inactive) | > 100 µM (inactive) | > 100 µM (inactive) | > 100 µM (inactive) | > 100 µM (inactive) | > 100 µM (inactive) | > 100 µM (inactive) | > 100 µM (inactive) | > 100 µM (inactive) | > 100 µM (inactive) | > 100 µM (inactive) |
| OC(Cc1cnnc2ccccc12)C(Cl)(Cl)Cl (stereo not given) | > 10 µM (inactive) | > 10 µM (inactive) | > 10 µM (inactive) | > 10 µM (inactive) | > 10 µM (inactive) | > 10 µM (inactive) | > 10 µM (inactive) | > 10 µM (inactive) | > 10 µM (inactive) | > 10 µM (inactive) | > 10 µM (inactive) | > 10 µM (inactive) | > 10 µM (inactive) | > 10 µM (inactive) | > 10 µM (inactive) | > 10 µM (inactive) | > 10 µM (inactive) | > 10 µM (inactive) | > 10 µM (inactive) | > 10 µM (inactive) |
| COc1ccc2c(c1)-c1c(c3cc(OC)ccc3n1CCN(C)C)CC2 | 13.5 µM (inactive) | 16.1 µM (inactive) | 14.1 µM (inactive) | 15.6 µM (inactive) | 5.18 µM (inactive) | 11.2 µM (inactive) | 18.3 µM (inactive) | 12.2 µM (inactive) | 12.1 µM (inactive) | 12.9 µM (inactive) | 14 µM (inactive) | 12.4 µM (inactive) | 13.9 µM (inactive) | 17.4 µM (inactive) | 17.8 µM (inactive) | 17.6 µM (inactive) | 15.4 µM (inactive) | 13.7 µM (inactive) | 21.5 µM (inactive) | 17.9 µM (inactive) |
| CCOC(=O)C1=C(C)NC(=O)NC1c1coc2cc(C)cc(C)c2c1=O (stereo not given) | 25.4 µM (inactive) | 13 µM (inactive) | > 74.3 µM (inactive) | 40.2 µM (inactive) | 32.1 µM (inactive) | 32.1 µM (inactive) | 57.5 µM (inactive) | 25.9 µM (inactive) | > 60.1 µM (inactive) | 58.2 µM (inactive) | 30 µM (inactive) | > 51.2 µM (inactive) | > 61.5 µM (inactive) | 64.1 µM (inactive) | 47.6 µM (inactive) | > 69.5 µM (inactive) | 75.9 µM (inactive) | > 100 µM (inactive) | > 66.5 µM (inactive) | 1.68 µM (inactive) |
| CC(C)NC(=O)OCc1c(COC(=O)NC(C)C)c(-c2ccc[n+](COC(=O)CC(C)(C)C)c2)n2c1CCC2 | 38.7 µM (inactive) | > 100 µM (inactive) | > 100 µM (inactive) | > 100 µM (inactive) | > 100 µM (inactive) | 94.8 µM (inactive) | 54 µM (inactive) | 51.5 µM (inactive) | > 100 µM (inactive) | 73.8 µM (inactive) | > 100 µM (inactive) | > 100 µM (inactive) | > 100 µM (inactive) | 81.3 µM (inactive) | 60.5 µM (inactive) | > 100 µM (inactive) | 84.9 µM (inactive) | > 100 µM (inactive) | > 100 µM (inactive) | 31.6 µM (inactive) |
| S=c1[nH]c2ccc(Br)cc2c(=S)s1 | 27.6 µM (inactive) | 33.3 µM (inactive) | 16.6 µM (inactive) | 23.5 µM (inactive) | 24.4 µM (inactive) | 22.9 µM (inactive) | 34.4 µM (inactive) | 22.1 µM (inactive) | 22.1 µM (inactive) | 19.9 µM (inactive) | 29.4 µM (inactive) | 16.5 µM (inactive) | 22.8 µM (inactive) | 31.6 µM (inactive) | 27.4 µM (inactive) | 22.5 µM (inactive) | 34.4 µM (inactive) | 38.1 µM (inactive) | 30 µM (inactive) | 25.1 µM (inactive) |
| Cc1cccc(NC(=O)c2cccc([N+](=O)[O-])c2O)c1C | 12.6 µM (inactive) | 33.8 µM (inactive) | 16.4 µM (inactive) | 24.9 µM (inactive) | 27.7 µM (inactive) | 25.3 µM (inactive) | 33.2 µM (inactive) | 20.6 µM (inactive) | 26.7 µM (inactive) | 27.4 µM (inactive) | 23.6 µM (inactive) | 9.62 µM (inactive) | 37.9 µM (inactive) | 33.7 µM (inactive) | 24.4 µM (inactive) | 24.9 µM (inactive) | 27.5 µM (inactive) | 37.3 µM (inactive) | 28.4 µM (inactive) | 16.8 µM (inactive) |
| O=[N+]([O-])c1ccc(/C(=N/c2ccccc2)SS/C(=N\c2ccccc2)c2ccc([N+](=O)[O-])o2)o1 | 1.75 µM (inactive) | 2.31 µM (inactive) | 2.93 µM (inactive) | 2.11 µM (inactive) | 1.35 µM (inactive) | 0.955 µM (active) | 1.8 µM (inactive) | 1.33 µM (inactive) | 1.6 µM (inactive) | 1.94 µM (inactive) | 1.68 µM (inactive) | 5.78 µM (inactive) | 2.74 µM (inactive) | 1.52 µM (inactive) | 2.76 µM (inactive) | 2.2 µM (inactive) | 0.83 µM (active) | 1.69 µM (inactive) | 3.86 µM (inactive) | 0.243 µM (active) |
| COc1ccc(-c2cc(-c3ccc(Nc4ccnc5cc(Cl)ccc45)cc3)[nH]c(=O)c2C#N)c2ccccc12 | 5.05 µM (inactive) | 2.23 µM (inactive) | 3.84 µM (inactive) | 24.9 µM (inactive) | 2 µM (inactive) | 1.87 µM (inactive) | 12.7 µM (inactive) | 11.1 µM (inactive) | 5.26 µM (inactive) | 11.4 µM (inactive) | 3.47 µM (inactive) | 13.1 µM (inactive) | 3.29 µM (inactive) | 2.3 µM (inactive) | 17.7 µM (inactive) | 1.88 µM (inactive) | 1.82 µM (inactive) | 5.33 µM (inactive) | 20.9 µM (inactive) | 1.79 µM (inactive) |
| Cc1cc(C)c2c(O)cc(-c3cccc(F)c3)nc2n1 | 0.163 µM (active) | 0.0614 µM (active) | < 0.01 µM (active) | 10.4 µM (inactive) | 0.0405 µM (active) | 0.0724 µM (active) | 1.44 µM (inactive) | 0.0738 µM (active) | 0.0766 µM (active) | 0.299 µM (active) | 0.0351 µM (active) | 0.0422 µM (active) | 0.42 µM (active) | 0.261 µM (active) | 0.0348 µM (active) | 0.232 µM (active) | 0.0944 µM (active) | 0.215 µM (active) | 0.158 µM (active) | 0.03 µM (active) |
| O=C(O)CCNCC(=O)O | > 100 µM (inactive) | > 100 µM (inactive) | > 100 µM (inactive) | > 100 µM (inactive) | > 100 µM (inactive) | > 100 µM (inactive) | > 100 µM (inactive) | > 100 µM (inactive) | > 100 µM (inactive) | > 100 µM (inactive) | > 100 µM (inactive) | > 100 µM (inactive) | > 100 µM (inactive) | > 100 µM (inactive) | > 100 µM (inactive) | > 100 µM (inactive) | > 100 µM (inactive) | > 100 µM (inactive) | > 100 µM (inactive) | > 100 µM (inactive) |
